ChEMBL document CHEMBL4765365, “Design, synthesis and antitumour evaluation of pyrrolo[1,2-f]-phenanthridine and dibenzo[f,h]pyrrolo[1,2-b]isoquinoline derivatives” (Eur J Med Chem, 2020)

Assays:
Format in all cases: functional
NCI-H460 [1] = test: Induction of cell cycle arrest in human NCI-H460 cells assessed as G1 phase at 3 uM incubated for 36 hrs by PI staining based flow cytometry analysis (reference value: 57.9 +/- 3.6 %)
HCT-116 [2] = test: Induction of cell cycle arrest in human HCT-116 cells assessed as G0 phase at 0.375 uM incubated for 36 hrs by PI staining based flow cytometry analysis (reference value: 2.5 +/- 0.8 %)
NCI-H460 [3] = test: Induction of cell cycle arrest in human NCI-H460 cells assessed as G2/M phase at 1.5 uM measured at 0 hrs by PI staining based flow cytometry analysis (reference value: 25.2 +/- 4 %)
HCT-116 [4] = test: Induction of cell cycle arrest in human HCT-116 cells assessed as G1 phase at 0.375 uM incubated for 36 hrs by PI staining based flow cytometry analysis (reference value: 57.4 +/- 1.3 %)
HCT-116 [5] = test: Induction of cell cycle arrest in human HCT-116 cells assessed as G0 phase at 0.75 uM incubated for 36 hrs by PI staining based flow cytometry analysis (reference value: 2.5 +/- 0.8 %)
NCI-H460 [6] = test: Induction of cell cycle arrest in human NCI-H460 cells assessed as G0 phase at 0.75 uM incubated for 36 hrs by PI staining based flow cytometry analysis (reference value: 2.8 +/- 0.7 %)
NCI-H460 [7] = test: Induction of cell cycle arrest in human NCI-H460 cells assessed as G0 phase at 0.75 uM incubated for 24 hrs by PI staining based flow cytometry analysis (reference value: 1.6 +/- 0.6 %)
HCT-116 [8] = test: Induction of cell cycle arrest in human HCT-116 cells assessed as G2/M phase at 1.5 uM incubated for 24 hrs by PI staining based flow cytometry analysis (reference value: 9.3 +/- 0.8 %)
NCI-H460 [9] = test: Induction of apoptosis in human NCI-H460 cells assessed as late apoptotic cells at 3 uM incubated for 48 hrs by annexin V-FITC and PI staining based flow cytometry analysis (reference value: 7.3 %)
HCT-116 [10] = test: Induction of cell cycle arrest in human HCT-116 cells assessed as G2/M phase at 0.375 uM incubated for 12 hrs by PI staining based flow cytometry analysis (reference value: 21.7 +/- 1.9 %)
NCI-H460 [11] = test: Induction of cell cycle arrest in human NCI-H460 cells assessed as G0 phase at 3 uM incubated for 12 hrs by PI staining based flow cytometry analysis (reference value: 2.9 +/- 2.4 %)
HCT-116 [12] = test: Induction of cell cycle arrest in human HCT-116 cells assessed as G0 phase at 1.5 uM incubated for 36 hrs by PI staining based flow cytometry analysis (reference value: 2.5 +/- 0.8 %)
NCI-H460 [13] = test: Induction of cell cycle arrest in human NCI-H460 cells assessed as G0 phase at 3 uM incubated for 36 hrs by PI staining based flow cytometry analysis (reference value: 2.8 +/- 0.7 %)
HCT-116 [14] = test: Induction of cell cycle arrest in human HCT-116 cells assessed as S phase at 1.5 uM incubated for 12 hrs by PI staining based flow cytometry analysis (reference value: 15.5 +/- 0.2 %)
HCT-116 [15] = test: Induction of cell cycle arrest in human HCT-116 cells assessed as G0 phase at 0.375 uM incubated for 24 hrs by PI staining based flow cytometry analysis (reference value: 12.5 +/- 5.4 %)
NCI-H460 [16] = test: Induction of cell cycle arrest in human NCI-H460 cells assessed as S phase at 3 uM measured at 0 hrs by PI staining based flow cytometry analysis (reference value: 12.2 +/- 2.8 %)
HCT-116 [17] = test: Induction of cell cycle arrest in human HCT-116 cells assessed as G0 phase at 0.375 uM measured at 0 hrs by PI staining based flow cytometry analysis (reference value: 0.7 +/- 0.2 %)
NCI-H460 [18] = test: Induction of cell cycle arrest in human NCI-H460 cells assessed as G2/M phase at 3 uM incubated for 36 hrs by PI staining based flow cytometry analysis (reference value: 25 +/- 1.2 %)
HCT-116 [19] = test: Induction of cell cycle arrest in human HCT-116 cells assessed as G1 phase at 0.75 uM measured at 0 hrs by PI staining based flow cytometry analysis (reference value: 52 +/- 5.1 %)
NCI-H460 [20] = test: Induction of cell cycle arrest in human NCI-H460 cells assessed as G0 phase at 1.5 uM incubated for 24 hrs by PI staining based flow cytometry analysis (reference value: 1.6 +/- 0.6 %)
HCT-116 [21] = test: Induction of cell cycle arrest in human HCT-116 cells assessed as S phase at 1.5 uM incubated for 24 hrs by PI staining based flow cytometry analysis (reference value: 21.2 +/- 5.4 %)
NCI-H460 [22] = test: Induction of cell cycle arrest in human NCI-H460 cells assessed as G2/M phase at 3 uM incubated for 24 hrs by PI staining based flow cytometry analysis (reference value: 21 +/- 6.7 %)
HCT-116 [23] = test: Induction of cell cycle arrest in human HCT-116 cells assessed as G2/M phase at 0.75 uM incubated for 36 hrs by PI staining based flow cytometry analysis (reference value: 23.6 +/- 1 %)
NCI-H460 [24] = test: Induction of cell cycle arrest in human NCI-H460 cells assessed as S phase at 1.5 uM incubated for 36 hrs by PI staining based flow cytometry analysis (reference value: 7.6 +/- 3.9 %)
NCI-H460 [25] = test: Induction of apoptosis in human NCI-H460 cells assessed as necrotic cells at 6 uM incubated for 48 hrs by annexin V-FITC and PI staining based flow cytometry analysis (reference value: 0.7 %)
NCI-H460 [26] = test: Induction of apoptosis in human NCI-H460 cells assessed as viable cells at 3 uM incubated for 48 hrs by annexin V-FITC and PI staining based flow cytometry analysis (reference value: 90.1 %); conditions: read-out: Activity
NCI-H460 [27] = test: Induction of cell cycle arrest in human NCI-H460 cells assessed as G1 phase at 0.75 uM incubated for 12 hrs by PI staining based flow cytometry analysis (reference value: 66 +/- 10 %)
NCI-H460 [28] = test: Induction of cell cycle arrest in human NCI-H460 cells assessed as G0 phase at 1.5 uM incubated for 36 hrs by PI staining based flow cytometry analysis (reference value: 2.8 +/- 0.7 %)
NCI-H460 [29] = test: Induction of cell cycle arrest in human NCI-H460 cells assessed as G2/M phase at 3 uM measured at 0 hrs by PI staining based flow cytometry analysis (reference value: 25.2 +/- 4 %)
HCT-116 [30] = test: Induction of cell cycle arrest in human HCT-116 cells assessed as S phase at 0.75 uM incubated for 12 hrs by PI staining based flow cytometry analysis (reference value: 15.5 +/- 0.2 %)
HCT-116 [31] = test: Induction of cell cycle arrest in human HCT-116 cells assessed as G0 phase at 0.75 uM measured at 0 hrs by PI staining based flow cytometry analysis (reference value: 0.7 +/- 0.2 %)

## OCc1cn2c3ccccc3c3ccccc3c2c1CO
NCI-H460 [1]
  Activity: 51.8%
HCT-116 [2]
  Activity: 2.8%
NCI-H460 [3]
  Activity: 23.9%
HCT-116 [4]
  Activity: 59.3%
HCT-116 [5]
  Activity: 6.9%
NCI-H460 [6]
  Activity: 1.9%
NCI-H460 [7]
  Activity: 1.8%
HCT-116 [8]
  Activity: 30.3%
NCI-H460 [9]
  Activity: 51.4%
HCT-116 [10]
  Activity: 23.2%
NCI-H460 [11]
  Activity: 2.5%
HCT-116 [12]
  Activity: 18.2%
NCI-H460 [13]
  Activity: 8.7%
HCT-116 [14]
  Activity: 19.9%
HCT-116 [15]
  Activity: 13.8%
NCI-H460 [16]
  Activity: 12.2%
HCT-116 [17]
  Activity: 0.6%
NCI-H460 [18]
  Activity: 25.6%
HCT-116 [19]
  Activity: 52%
NCI-H460 [20]
  Activity: 2.8%
HCT-116 [21]
  Activity: 5.7%
NCI-H460 [22]
  Activity: 30%
HCT-116 [23]
  Activity: 17.4%
NCI-H460 [24]
  Activity: 3.5%
NCI-H460 [25]
  Activity: 1.6%
NCI-H460 [26]
  viability at 3 µM: 36.2%
NCI-H460 [27]
  Activity: 53%
NCI-H460 [28]
  Activity: 3.3%
NCI-H460 [29]
  Activity: 24.6%
HCT-116 [30]
  Activity: 16.9%
HCT-116 [31]
  Activity: 0.8%
